Values of other authors in patent US12268783B2, “Platform drug delivery system utilizing crystal engineering and theanine dissolution” (THEAPRIN PHARMACEUTICALS, INC., priority 2015, dated 2025).

Test system: Chironex fleckeri venom
Conditions: mice following venom injection

Substance: zinc gluconate
- survival time: prolonged survival time
